target: T1, human KDR enzyme (Homo sapiens, UniProt P35968); test: Phosphorylation of the substrate PLCγ by the enzyme KDR in vitro (flashplate technique); format: biochemical; details: Table VII, degrees of activity by IC50 range; read-out: Activity
T1 construct: The cytoplasmic domain of human KDR enzyme is cloned in the form of a GST fusion; GST; made in house; host or cells: SF21 insect cells (baculovirus, pFastBac)
Procedure, shortened: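 GST-fused human KDR cytoplasmic domain (Sf21 baculovirus, ~60% pure; 100 ng/well) phosphorylating 2 μg GST-PLCγ SH2-SH3 fragment in MOPS pH 7.2 with MgCl2/MnCl2, 1 h at 37° C. Started with γ33P-ATP plus cold ATP (2 μM in start solution); flashplate radioactivity. % inhibition vs no-compound control; IC50 from dose-response curves.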

T1 sequence (P35968 786-1356 limits assumed): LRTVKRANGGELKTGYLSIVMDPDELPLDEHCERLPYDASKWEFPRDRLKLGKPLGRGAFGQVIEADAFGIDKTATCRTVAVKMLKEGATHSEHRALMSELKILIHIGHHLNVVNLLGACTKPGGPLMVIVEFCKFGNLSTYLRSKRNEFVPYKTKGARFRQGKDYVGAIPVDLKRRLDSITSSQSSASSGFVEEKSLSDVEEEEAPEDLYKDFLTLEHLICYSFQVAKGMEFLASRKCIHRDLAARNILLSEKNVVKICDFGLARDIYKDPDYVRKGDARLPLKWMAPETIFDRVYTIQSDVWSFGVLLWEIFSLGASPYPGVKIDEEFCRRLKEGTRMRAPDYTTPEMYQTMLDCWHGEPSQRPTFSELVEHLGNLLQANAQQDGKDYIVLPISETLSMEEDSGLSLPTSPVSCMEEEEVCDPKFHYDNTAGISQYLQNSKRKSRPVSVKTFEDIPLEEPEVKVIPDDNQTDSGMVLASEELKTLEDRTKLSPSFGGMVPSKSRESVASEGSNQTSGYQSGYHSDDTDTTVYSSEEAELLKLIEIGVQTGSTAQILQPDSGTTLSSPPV

SMILES | IC50
O=C(NCc1c(F)cccc1F)c1ccc2[nH]c(-c3n[nH]c4ccccc34)nc2c1 [Example 156, 2-(1H-Indazol-3-yl)-1H-benzoimidazole-5-carboxylic acid 2,6-difluoro-benzylamide] | 300 to 3000 nM
O=C(NCc1ccc(Cl)cc1F)c1ccc2[nH]c(-c3n[nH]c4ccccc34)nc2c1 [Example 158, 2-(1H-Indazol-3-yl)-1H-benzoimidazole-5-carboxylic acid 4-chloro-2-fluoro-benzylamide] | 300 to 3000 nM
O=C(NCc1ccc(Br)cc1F)c1ccc2[nH]c(-c3n[nH]c4ccccc34)nc2c1 [Example 159, 2-(1H-Indazol-3-yl)-1H-benzoimidazole-5-carboxylic acid 4-bromo-2-fluoro-benzylamide] | 300 to 3000 nM
O=C(NCc1ccc(F)c(F)c1)c1ccc2[nH]c(-c3n[nH]c4ccccc34)nc2c1 [Example 160, 2-(1H-Indazol-3-yl)-1H-benzoimidazole-5-carboxylic acid 3,4-difluoro-benzylamide] | 300 to 3000 nM
O=C(NCc1cc(F)c(F)c(F)c1)c1ccc2[nH]c(-c3n[nH]c4ccccc34)nc2c1 [Example 161, 2-(1H-Indazol-3-yl)-1H-benzoimidazole-5-carboxylic acid 3,4,5-trifluoro-benzylamide] | 300 to 3000 nM
O=C(NCc1ccc(-c2ccc(Cl)cc2)cc1)c1ccc2[nH]c(-c3n[nH]c4ccccc34)nc2c1 [Example 162, 2-(1H-Indazol-3-yl)-1H-benzoimidazole-5-carboxylic acid (4′-chloro-biphenyl-4-ylmethyl)-amide] | > 3000 nM
O=C(NCc1ccc(-c2cc(Cl)cc(Cl)c2)cc1)c1ccc2[nH]c(-c3n[nH]c4ccccc34)nc2c1 [Example 163, 2-(1H-Indazol-3-yl)-1H-benzoimidazole-5-carboxylic acid (3′,5′-dichloro-biphenyl-4-ylmethyl)-amide] | > 3000 nM
O=C(NCc1ccc(-c2ccc(F)cc2)cc1)c1ccc2[nH]c(-c3n[nH]c4ccccc34)nc2c1 [Example 164] | > 3000 nM
O=C(NCc1ccccc1F)c1ccc2[nH]c(-c3n[nH]c4ccccc34)nc2c1 [Example 165, 2-(1H-Indazol-3-yl)-1H-benzoimidazole-5-carboxylic acid 2-fluoro-benzylamide] | > 3000 nM
Cc1ccc(F)c(CNC(=O)c2ccc3[nH]c(-c4n[nH]c5ccccc45)nc3c2)c1F [Example 166, 2-(1H-Indazol-3-yl)-1H-benzoimidazole-5-carboxylic acid 2,6-difluoro-3-methyl-benzylamide] | 300 to 3000 nM
O=C(NCc1ccc(F)cc1)c1ccc2[nH]c(-c3n[nH]c4ccccc34)nc2c1 [Example 170, 2-(1H-Indazol-3-yl)-1H-benzoimidazole-5-carboxylic acid 4-fluoro-benzylamide] | 300 to 3000 nM
O=C(NCc1ccc(-c2ccccc2Cl)cc1)c1ccc2[nH]c(-c3n[nH]c4ccccc34)nc2c1 [Example 171, 2-(1H-Indazol-3-yl)-1H-benzoimidazole-5-carboxylic acid (2′-chloro-biphenyl-4-ylmethyl)-amide] | 300 to 3000 nM
O=C(NCc1ccc(C(F)(F)F)nc1)c1ccc2[nH]c(-c3n[nH]c4ccccc34)nc2c1 [Example 172, 2-(1H-Indazol-3-yl)-1H-benzoimidazole-5-carboxylic acid (6-trifluoromethyl-pyridin-3-ylmethyl)-amide] | 300 to 3000 nM
O=C(NCc1ccc(-c2ccccn2)s1)c1ccc2[nH]c(-c3n[nH]c4ccccc34)nc2c1 [Example 173, 2-(1H-Indazol-3-yl)-1H-benzoimidazole-5-carboxylic acid (5-pyridin-2-yl-thiophen-2-ylmethyl)-amide] | 300 to 3000 nM
O=C(NCCCn1ccnc1)c1ccc2[nH]c(-c3n[nH]c4ccccc34)nc2c1 [Example 174, 2-(1H-Indazol-3-yl)-1H-benzoimidazole-5-carboxylic acid (3-imidazol-1-yl-propyl)-amide] | 300 to 3000 nM
CC(C)(C)OC(=O)N1CCN(C(=O)c2ccc3[nH]c(-c4n[nH]c5ccccc45)nc3c2)CC1 [Example 175, 4-[2-(1H-Indazol-3-yl)-1H-benzoimidazole-5-carbonyl]-piperazine-1-carboxylic acid tert-butyl ester] | 300 to 3000 nM

Continued, values first:

IC50 | SMILES
300 to 3000 nM | CNC(=O)c1ccc2[nH]c(-c3n[nH]c4ccccc34)nc2c1 [Example 148, 2-(1H-Indazol-3-yl)-1H-benzoimidazole-5-carboxylic acid methylamide]
300 to 3000 nM | CC(C)NC(=O)c1ccc2[nH]c(-c3n[nH]c4ccccc34)nc2c1 [Example 149, 2-(1H-Indazol-3-yl)-1H-benzoimidazole-5-carboxylic acid isopropylamide]
300 to 3000 nM | O=C(c1ccc2[nH]c(-c3n[nH]c4ccccc34)nc2c1)N1CCOCC1 [Example 150, [2-(1H-Indazol-3-yl)-1H-benzoimidazol-5-yl]-morpholin-4-yl-methanone]
300 to 3000 nM | CN1CCN(C(=O)c2ccc3[nH]c(-c4n[nH]c5ccccc45)nc3c2)CC1 [Example 151, [2-(1H-Indazol-3-yl)-1H-benzoimidazol-5-yl]-(4-methyl-piperazin-1-yl)-methanone]
300 to 3000 nM | CN(Cc1ccccc1)C(=O)c1ccc2[nH]c(-c3n[nH]c4ccccc34)nc2c1 [Example 152, 2-(1H-Indazol-3-yl)-1H-benzoimidazole-5-carboxylic acid benzyl-methyl-amide]
300 to 3000 nM | O=C(NCc1cccc([N+](=O)[O-])c1)c1ccc2[nH]c(-c3n[nH]c4ccccc34)nc2c1 [Example 153, 2-(1H-Indazol-3-yl)-1H-benzoimidazole-5-carboxylic acid 3-nitro-benzylamide]
300 to 3000 nM | O=C(NCc1ccccc1F)c1ccc2[nH]c(-c3n[nH]c4ccccc34)nc2c1 [Example 154, 2-(1H-Indazol-3-yl)-1H-benzoimidazole-5-carboxylic acid 2-fluoro-benzylamide]
300 to 3000 nM | O=C(NCc1ccc(F)cc1F)c1ccc2[nH]c(-c3n[nH]c4ccccc34)nc2c1 [Example 155, 2-(1H-Indazol-3-yl)-1H-benzoimidazole-5-carboxylic acid 2,4-difluoro-benzylamide]
< 300 nM | O=C(NCc1ccc(Br)cc1F)c1ccc2[nH]c(-c3n[nH]c4ccccc34)nc2c1 [Example 157, 2-(1H-Indazol-3-yl)-1H-benzoimidazole-5-carboxylic acid 4-bromo-2-fluoro-benzylamide]
< 300 nM | O=C(NCc1ccc(Cl)cc1Cl)c1ccc2[nH]c(-c3n[nH]c4ccccc34)nc2c1 [Example 167, 2-(1H-Indazol-3-yl)-1H-benzoimidazole-5-carboxylic acid 2,4-dichloro-benzylamide]
< 300 nM | O=C(NCc1ccc(Cl)cc1)c1ccc2[nH]c(-c3n[nH]c4ccccc34)nc2c1 [Example 168, 2-(1H-Indazol-3-yl)-1H-benzoimidazole-5-carboxylic acid 4-chloro-benzylamide]
< 300 nM | Cc1cc(Cl)ccc1CNC(=O)c1ccc2[nH]c(-c3n[nH]c4ccccc34)nc2c1 [Example 169, 2-(1H-Indazol-3-yl)-1H-benzoimidazole-5-carboxylic acid 4-chloro-2-methyl-benzylamide]
< 300 nM | O=C(NCc1c(F)cc(Cl)cc1F)c1ccc2[nH]c(-c3n[nH]c4ccccc34)nc2c1 [Example 176, 2-(1H-Indazol-3-yl)-1H-benzoimidazole-5-carboxylic acid (2,6-difluoro-4-chloro-benzyl)amide]

Source: patent US20050009894A1 (Aventis Pharma S.A., priority 2001, published 2005)
